Reference: ChEMBL document CHEMBL1140310, “[Nalpha-benzylTyr1,cyclo(D-Asp5,Dap8)]- dynorphin A-(1-11)NH2 cyclized in the "address" domain is a novel kappa-opioid receptor antagonist” (J Med Chem, 2005)

Assays:
[1] = Relative binding affinity for kappa and delta opioid receptors
[2] = Inhibition of [3H]-DPDPE (cyclo[D-Pen2,D-Pen5]enkep halin) binding to delta opioid receptor expressed in CHO cells; format: cell-based
[3] = Relative binding affinity for kappa and mu opioid receptors
[4] = Inhibition of [3H]diprenorphine binding to kappa opioid receptor expressed in CHO cells; format: cell-based
[5] = Inhibition of [3H]DAMGO ([D-Ala2,NMePhe4,glyol]-enkephalin) binding to mu opioid receptor expressed in CHO cells; format: cell-based

Structure (SMILES)	Ratio [1]	Ki [2] [µM]	Ratio [3]	Ki [4] [nM]	Ki [5] [µM]
CC[C@H](C)[C@H](NC(=O)[C@H](CCCN=C(N)N)NC(=O)[C@H](CCCN=C(N)N)NC(=O)[C@H](CC(C)C)NC(=O)[C@H](Cc1ccccc1)NC(=O)CNC(=O)CNC(=O)[C@@H](N)Cc1ccc(O)cc1)C(=O)N[C@@H](CCCN=C(N)N)C(=O)N1CCC[C@H]1C(=O)N[C@@H](CCCCN)C(N)=O	0.09	0.00618	0.33	0.57	–
NCCCC[C@H](NC(=O)[C@@H]1CCCN1C(=O)[C@H](CCCN=C(N)N)NC(=O)[C@@H]1CNC(=O)C[C@H](NC(=O)[C@H](Cc2ccccc2)NC(=O)CNC(=O)CNC(=O)[C@H](Cc2ccc(O)cc2)NCc2ccccc2)C(=O)N[C@H](CCCN=C(N)N)C(=O)N[C@@H](CCCN=C(N)N)C(=O)N1)C(N)=O	0.003	> 10	0.005	30.3	5.88
CC(=O)NC[C@H](NC(=O)[C@H](CCCNC(=N)N)NC(=O)[C@H](CCCNC(=N)N)NC(=O)[C@@H](CC(N)=O)NC(=O)[C@H](Cc1ccccc1)NC(=O)CNC(=O)CNC(=O)[C@H](Cc1ccc(O)cc1)NCc1ccccc1)C(=O)N[C@@H](CCCNC(=N)N)C(=O)N1CCC[C@H]1C(=O)N[C@@H](CCCCN)C(N)=O	0.007	> 10	0.04	66.9	1.66
